# Test results taken from patent US11110082B2, “Tyrosine kinase inhibitors” (Rigel Pharmaceuticals, Inc., priority 2016, dated 2021).
# Molecular target: T1, MerTK (Homo sapiens, UniProt Q12866)
# T1 construct: Seed HUVECs (10K cells/well) in EBM-2 complete media; host or cells: HUVEC (primary human umbilical vein endothelial cells)
# T1 sequence (Q12866 21-999): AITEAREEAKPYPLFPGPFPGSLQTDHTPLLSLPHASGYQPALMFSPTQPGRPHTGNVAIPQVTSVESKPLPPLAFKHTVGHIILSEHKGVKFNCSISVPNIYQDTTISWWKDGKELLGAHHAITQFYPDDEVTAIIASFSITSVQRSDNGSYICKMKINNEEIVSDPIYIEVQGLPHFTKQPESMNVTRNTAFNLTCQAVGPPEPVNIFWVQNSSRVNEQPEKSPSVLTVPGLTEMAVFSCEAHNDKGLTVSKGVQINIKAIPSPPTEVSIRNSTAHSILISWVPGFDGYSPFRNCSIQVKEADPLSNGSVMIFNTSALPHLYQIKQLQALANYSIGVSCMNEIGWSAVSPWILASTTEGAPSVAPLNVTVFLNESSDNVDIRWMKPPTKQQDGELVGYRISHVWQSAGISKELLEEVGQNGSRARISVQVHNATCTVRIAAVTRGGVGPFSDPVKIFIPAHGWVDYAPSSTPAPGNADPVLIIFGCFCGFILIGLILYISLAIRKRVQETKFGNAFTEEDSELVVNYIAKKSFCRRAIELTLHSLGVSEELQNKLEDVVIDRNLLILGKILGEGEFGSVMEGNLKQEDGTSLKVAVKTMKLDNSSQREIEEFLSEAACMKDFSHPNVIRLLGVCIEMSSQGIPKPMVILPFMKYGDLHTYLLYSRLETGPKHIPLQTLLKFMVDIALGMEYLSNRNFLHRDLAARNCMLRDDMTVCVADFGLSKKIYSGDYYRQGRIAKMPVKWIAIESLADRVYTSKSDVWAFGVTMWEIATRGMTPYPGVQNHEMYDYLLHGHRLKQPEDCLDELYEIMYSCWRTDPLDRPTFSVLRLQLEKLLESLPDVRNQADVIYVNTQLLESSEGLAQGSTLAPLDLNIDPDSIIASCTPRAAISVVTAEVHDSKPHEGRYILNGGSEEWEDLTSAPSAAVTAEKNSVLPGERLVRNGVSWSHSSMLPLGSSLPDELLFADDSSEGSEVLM
# Assay: PAKT HTRF-HUVEC assay (pAkt Ser473 HTRF after anti-human MerTK-XL stimulation)
# Format: cell-based
# Settings: HUVEC cells, 1 hour compound, stimulated with anti-human MerTK-XL 1 ug/mL for 10 minutes, read-out: inhibition of MerTK
# Procedure, shortened: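 Akt Ser473 phosphorylation measured by HTRF in lysates of serum-starved HUVECs. Cells received compound for 1 h at 37° C before a 10-min challenge with antibody-cross-linked anti-MerTK (1 ug/mL final); EC50 derived by curve fit.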
row,SMILES,EC50 [nM]
1,"CCCCNc1ncc2c3ccc(N4CCN(C5COC5)CC4)cc3c(=O)n([C@H]3CC[C@H](O)CC3)c2n1 [Compound 77, trans-3-(Butylamino)-5-(4-hydroxycyclohexyl)-8-(4-(oxetan-3-yl)piperazin-1-yl)pyrimido[4,5-c]isoquinolin-6(5H)-one]",21.9
2,"CCCCNc1ncc2c3ccc(N4C[C@@H](C)N(C)C[C@@H]4C)cc3c(=O)n([C@H]3CC[C@H](O)CC3)c2n1 [Compound 78, trans-3-(Butylamino)-5-(4-hydroxycyclohexyl)-8-((2S,5R)-2,4,5-trimethylpiperazin-1-yl)pyrimido[4,5-c]isoquinolin-6(5H)-one]",9
3,"CCCCNc1ncc2c3ccc(N4C[C@@H](C)N(C)C[C@@H]4C)cc3c(=O)n(C3CCC(=O)CC3)c2n1 [Compound 79, 3-(Butylamino)-5-(4-oxocyclohexyl)-8-((2S,5R)-2,4,5-trimethylpiperazin-1-yl)pyrimido[4,5-c]isoquinolin-6(5H)-one]",156
4,"CCCCNc1ncc2c3ccc(N4CCn5ncnc5C4)cc3c(=O)n([C@H]3CC[C@H](O)CC3)c2n1 [Compound 80, trans-3-(Butylamino)-8-(5,6-dihydro-[1,2,4]triazolo[1,5-a]pyrazin-7(8H)-yl)-5-(4-hydroxycyclohexyl)pyrimido [4,5-c]isoquinolin-6(5H)-one]",34.5
5,"CCCCNc1ncc2c3ccc(N4CCN5CCC4CC5)cc3c(=O)n([C@H]3CC[C@H](O)CC3)c2n1 [Compound 81, trans-8-(1,4-Diazabicyclo[3.2.2]nonan-4-yl)-3-(butylamino)-5-(4-hydroxycyclohexyl)pyrimido[4,5-c]isoquinolin-6(5H)-one]",13.9
6,"CCCCNc1ncc2c3ccc(N4CCN5CCC4CC5)cc3c(=O)n(C3CCC(=O)CC3)c2n1 [Compound 82, 8-(1,4-Diazabicyclo[3.2.2]nonan-4-yl)-3-(butylamino)-5-(4-oxocyclohexyl)pyrimido[4,5-c]isoquinolin-6(5H)-one]",216
7,"CCCCNc1ncc2c3ccc(N4CCNCC4)cc3c(=O)n([C@H]3CC[C@H](O)CC3)c2n1 [Compound 83, trans-3-(Butylamino)-5-(4-hydroxycyclohexyl)-8-(piperazin-1-yl)pyrimido[4,5-c]isoquinolin-6(5H)-one]",31.8
8,"CCCCNc1ncc2c3ccc(N4CCNCC4)cc3c(=O)n(C3CCC(=O)CC3)c2n1 [Compound 84, 3-(Butylamino)-5-(4-oxocyclohexyl)-8-(piperazin-1-yl)pyrimido[4,5-c]isoquinolin-6(5H)-one]",288
9,"CN1CCN(c2ccc3c(c2)c(=O)n([C@H]2CC[C@H](O)CC2)c2nc(NC4CC(F)(F)C4)ncc32)CC1 [Compound 85, trans-3-((3,3-Difluorocyclobutyl)amino)-5-(4-hydroxycyclohexyl)-8-(4-methylpiperazin-1-yl)pyrimido[4,5-c]isoquinolin-6(5H)-one]",221
10,"CCCCNc1ncc2c3ccc(N4CCN(C)CC4)cc3c(=O)n(C3CCC(C)(O)CC3)c2n1 (stereo not drawn) [Compound 86, trans-3-(Butylamino)-5-(4-hydroxy-4-methylcyclohexyl)-8-(4-methylpiperazin-1-yl)pyrimido[4,5-c]isoquinolin-6(5H)-one]",19.9
11,"CN1CCN(c2ccc3c(c2)c(=O)n([C@H]2CC[C@H](O)CC2)c2nc(NCC4CC4)ncc32)CC1 [Compound 87, trans-3-((Cyclopropylmethyl)amino)-5-(4-hydroxycyclohexyl)-8-(4-methylpiperazin-1-yl)pyrimido[4,5-c]isoquinolin-6(5H)-one]",115
12,"CCCCNc1ncc2c3ccc(N4CCN(C)CC4)cc3c(=O)n(C3CC4(CC(O)C4)C3)c2n1 (stereo not shown) [Compound 88, 3-(Butylamino)-5-(6-hydroxyspiro[3.3]heptan-2-yl)-8-(4-methylpiperazin-1-yl)pyrimido[4,5-c]isoquinolin-6(5H)-one]",51
13,"CCCCNc1ncc2c3ccc(N4CCN(C)CC4)cc3c(=O)n([C@H]3CC[C@@](C)(O)CC3)c2n1 [Compound 89, cis-3-(Butylamino)-5-(4-hydroxy-4-methylcyclohexyl)-8-(4-methylpiperazin-1-yl)pyrimido[4,5-c]isoquinolin-6(5H)-one]",152
